Data from paper PMC3948918 (PLoS ONE, 2014).
Read-outs that look alike come from different tables or passages of the source. Numbered stars: 1 amine (or outer) side, 2 acyl side, 3 side chain; on linkers, the order of the positions; unused ones are H or OH. Bridge positions count the residues as written; N and C are the ends. Square brackets hold non-standard residues; d marks the D form. Peptide text beside a SMILES is read from it. Adda = CO[C@@H](Cc1ccccc1)[C@@H](C)/C=C(C)/C=C/[C@H](N[*:1])[C@H](C)C(=O)[*:2]; dAsp(3S-Me) = C[C@H](C(=O)[*:3])[C@@H](N[*:1])C(=O)[*:2]; d(γGlu) = O=C(O)[C@@H](CCC(=O)[*:2])N[*:1]; NMeDha = C=C(NC)C(=O)O

Experiments:
[1] = test system: OATP1B3-expressing HeLa cells; conditions: cited from earlier work
[2] = test system: OATP1B1- and OATP1B3-expressing HeLa or RKO cell lines
[3] = test system: HeLa Control cells; conditions: cited from earlier work
[4] = test system: PP2A; conditions: cited from earlier work
[5] = test system: OATP1B1-expressing HeLa cells; conditions: read-out: IC50 HeLa B1; cited from earlier work
[6] = test system: OATP1B1; test: in vitro; conditions: human
[7] = test system: OATP1B3-expressing HeLa cells; conditions: for IC50: human
[8] = test system: HeLa Control cells; conditions: 24 h

| SMILES | Ratio IC50 B1/B3 HeLa [1] | IC50 ([1]; read-out: IC50 HeLa B3) | toxicity in the present assay compared with 1 (times lower) [2] | transporter selectivity (in words) [2] | IC50 ([2]; read-out: IC50 values (potency grouping)) | IC50 [3] | PP2A inhibition compared with 1 [4] | IC50 [5] | IC50 [6] | IC50 values (potency grouping) [2] | Ratio IC50 B1/B3 HeLa [7] | IC50 [7] | IC50 [8] |
| --- | --- | --- | --- | --- | --- | --- | --- | --- | --- | --- | --- | --- | --- |
| C=C1C(=O)N[C@H](C)C(=O)N[C@@H](CCCNC(=N)N)C(=O)N[C@@H](C(=O)O)[C@H](C)C(=O)N[C@@H](CCCNC(=N)N)C(=O)N[C@@H](/C=C/C(C)=C/[C@H](C)[C@H](Cc2ccccc2)OC)[C@H](C)C(=O)N[C@@H](C(=O)O)CCC(=O)N1C [compound 10, RR] (R[Adda][d(γGlu)][NMeDha][dA]R[dAsp(3S-Me)]-OH; lactam N-7) | 6.6 | 580 nM | about 500 times | most OATP1B3 selective | > 100 nM | > 10 µM | about twenty times weaker | 3.8 µM |  |  |  |  |  |
| C/C=C1/NC(=O)CC[C@H](C(=O)O)NC(=O)[C@@H](C)[C@H](/C=C/C(C)=C/[C@H](C)[C@H](Cc2ccccc2)OC)NC(=O)[C@H](Cc2ccc(O)cc2)NC(=O)C[C@H](C(=O)O)NC(=O)[C@H](CCc2ccc(O)cc2)NC(=O)[C@@H](C)NC1=O [compound 18, [D-Asp^3,(E)-Dhb^7]MC-HtyY] |  |  |  | most OATP1B3 selective |  |  |  |  | 0.515 nM | sub-nanomolar | 6.6 | 0.078 nM | > 10 nM |
| C/C=C1/NC(=O)CC[C@H](C(=O)O)NC(=O)[C@@H](C)[C@H](/C=C/C(C)=C/[C@H](C)[C@H](Cc2ccccc2)OC)NC(=O)[C@H](CCc2ccc(O)cc2)NC(=O)C[C@H](C(=O)O)NC(=O)[C@H](CCc2ccc(O)cc2)NC(=O)[C@@H](C)NC1=O [compound 19, [D-Asp^3,(E)-Dhb^7]MC-HtyHty] |  |  |  |  |  |  |  |  | 0.39 nM | sub-nanomolar | 2.2 | 0.18 nM | > 10 nM |
